Results taken from US20250389728A1, “NOVEL CLASS OF TRIOXANE-BASED MS-CLEAVABLE CROSS-LINKERS TO ADVANCE PROTEIN-PROTEIN INTERACTION STUDIES USING CROSS-LINKING MASS SPECTROMETRY” (The Regents of the University of California, priority 2024, published 2025).

Key:
BSA = BSA (Bos taurus, UniProt P02769); test: TSTO cross-linking of BSA, LC-MSn
Procedure: The reaction was carried out for 1 h at RT, followed by quenching with ammonium bicarbonate. […] Cross-linked proteins were then digested in 8M urea buffer using LysC for 4 h at 37° C., followed by trypsin digestion at 37° C. overnight after diluting urea concentration to <1.5 M. The resulting peptide mixtures were extracted and desalted using C18 tips (Agilent) prior to MS analyses.
(§1) LC-MS^n analysis. LC-MS^n analysis of cross-linked peptides was performed using an UltiMate 3000 UPLC (Thermo Fisher Scientific) liquid chromatograph coupled on-line to an Orbitrap Fusion Lumos mass spectrometer (Thermo Fisher Scientific). Peptides were separated by reverse-phase on a 50 cm×75 μm I.D. Acclaim® PepMap RSLC column using gradients of 4% to 25% acetonitrile at a flow rate of 300 nL/min (solvent A: 100% H2O, 0.1% formic acid; solvent B: 100% acetonitrile, 0.1% formic acid) prior to MS^n analysis. For each MS^n acquisition, duty cycles consisted of one full Fourier transform scan mass spectrum (375-1500 m/z, resolution of 60,000 at m/z 400) followed by data-dependent MS^2 and MS^3 acquired at top speed in the Orbitrap and linear ion trap, respectively. Ions detected in MS^1 with 4+ or greater charge were selected and subjected to CID fragmentation (NCE 23%) in MS^2 and resulting ions were detected in the Orbitrap (resolution 30,000). Ions observed in MS^2 spectra with charge 2+ or greater were selected and fragmented in MS^3 using CID (NCE 35%) and detected in the linear ion trap in ‘Rapid’ mode. Ions selected for MS^3 were either based on abundance (top 4 or 5 most intense ions in MS^2) or targeted based on doublets with mass difference pairs (Δ=18.02 Da) corresponding to cross-linker remnant moiety water loss. For 26S proteasome cross-links, each acquisition was 200 min and ion selection for MS^3 was based on top intensity. For SEC-separated F24 fractions, the entire HpHt fraction was injected; for F26 fractions half of the HpHt fraction was injected for each LC-MS^n analysis. Each acquisition was 120 or 150 min, and both top intensity and mass difference-targeted methods were used for selecting ions for MS^3 analysis.
Spectrometric data were extracted from .raw files using PAVA. Extracted MS^3 spectra were subjected to protein database searching via Batch-Tag within a developmental version of Protein Prospector (v. 6.3.5, University of California, San Francisco) against a randomly concatenated SwissProt database consisting of 20,418 human proteins and their corresponding decoys. Mass tolerances for parent ions and fragment ions were set as ±15 ppm and 0.6 Da, respectively. Trypsin was set as the enzyme with three maximum missed cleavages allowed. Cysteine carbamidomethylation was selected as a constant modification, while protein N-terminal acetylation, methionine oxidation, and N-terminal conversion of glutamine to pyroglutamic acid were selected as variable modifications.

human 26S proteasomes = test: TSTO cross-linking of affinity-purified 26S proteasomes, LC-MSn
Procedure: Cross-linked proteins were then digested in 8M urea buffer using LysC for 4 h at 37° C., followed by trypsin digestion at 37° C. overnight after diluting urea concentration to <1.5 M. The resulting peptide mixtures were extracted and desalted using C18 tips (Agilent) prior to MS analyses.
as §1, with “MS^3 analysis. […]” for “MS^3 analysis.”

Chain of BSA (P02769 25-607): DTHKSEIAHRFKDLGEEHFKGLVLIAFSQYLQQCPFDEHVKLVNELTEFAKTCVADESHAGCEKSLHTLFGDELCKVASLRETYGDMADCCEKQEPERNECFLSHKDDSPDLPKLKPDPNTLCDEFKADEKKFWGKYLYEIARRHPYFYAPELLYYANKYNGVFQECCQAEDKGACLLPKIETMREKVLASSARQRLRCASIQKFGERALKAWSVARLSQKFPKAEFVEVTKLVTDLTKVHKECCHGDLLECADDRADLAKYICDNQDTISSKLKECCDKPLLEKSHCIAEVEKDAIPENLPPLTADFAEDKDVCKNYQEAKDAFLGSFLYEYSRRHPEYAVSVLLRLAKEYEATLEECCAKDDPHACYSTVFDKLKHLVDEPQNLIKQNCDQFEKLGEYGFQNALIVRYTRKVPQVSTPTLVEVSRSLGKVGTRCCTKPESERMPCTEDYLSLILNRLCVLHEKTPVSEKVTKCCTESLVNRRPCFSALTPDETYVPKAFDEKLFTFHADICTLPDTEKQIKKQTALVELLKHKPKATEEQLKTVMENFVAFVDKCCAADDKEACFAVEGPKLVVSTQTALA

redundant cross-linked spectra matches (CSMs) (BSA; 1 mM TSTO, pH 7.4 PBS, 1 h RT): 823
unique CSMs (BSA; 1 mM TSTO, pH 7.4 PBS, 1 h RT): 167
tri-links share of total unique CSMs (BSA; 45/167): ~27%
overall mapped distance median (Cα-Cα) (BSA; mapped to PDB:4F5S): 21.1 Å
satisfaction rate of cross-links ≤35 Å (BSA; mapped to PDB:4F5S): 90%
share of unique CSMs that were tri-links (human 26S proteasomes; 0.75 mM TSTO on-bead): 41.3%
total unique CSMs (human 26S proteasomes; 0.75 mM TSTO on-bead, PBS pH 7.5, 1 h): 808
satisfaction rates (≤35 Å) of mapped tri-links and bi-links (human 26S proteasomes; mapped to PDB: 7QY7): ~90%
SMILES: O=C(CCCC1OC(CCCC(=O)ON2C(=O)CCC2=O)OC(CCCC(=O)ON2C(=O)CCC2=O)O1)ON1C(=O)CCC1=O (centres unmarked) [TSTO, Tris(2,5-dioxopyrrolidin-1-yl) 4,4′,4″-(1,3,5-trioxane-2,4,6-triyl)tributanoate]
